Data: PMC6009906, “A new nitrobenzoxadiazole-based GSTP1-1 inhibitor with a previously unheard of mechanism of action and high stability” (Journal of Enzyme Inhibition and Medicinal Chemistry, 2017)

Legend:
[1] = biological target: T1, GSTP1-1 (glutathione transferase P1-1) (Homo sapiens, UniProt P09211); assay: CDNB-GSH conjugation assay in buffer B (no detergent), pH […] °C; assay type: biochemical
[2] = biological target: T1, GSTP1-1 (glutathione transferase P1-1); assay: CDNB-GSH conjugation assay in buffer A, pH […] °C (partial, max […] inhibition; K iapp […] without Triton); also intrinsic protein fluorescence quenching with and without GSH; assay type: biochemical

T1 sequence (P09211 2-210): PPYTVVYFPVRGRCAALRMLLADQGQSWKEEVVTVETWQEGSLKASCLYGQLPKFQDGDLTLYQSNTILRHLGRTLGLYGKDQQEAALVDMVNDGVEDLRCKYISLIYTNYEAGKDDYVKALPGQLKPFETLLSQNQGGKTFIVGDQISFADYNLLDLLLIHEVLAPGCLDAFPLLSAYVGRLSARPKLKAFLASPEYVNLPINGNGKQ

CC(=O)OCCCCCCSc1ccc([N+](=O)[O-])c2nonc12 [compound 3, MC2752]
Ki [1]: 600 nM

O=C(OCCCCCCSc1ccc([N+](=O)[O-])c2nonc12)c1ccccc1 [compound 2, 6-((7 nitrobenzo[c][1,2,5]oxadiazol-4-yl)thio)hexyl benzoate]
Ki [2]: 3.9 µM
